Reference: patent US20240269139A1, “COMPOUNDS FOR TARGETED PROTEIN DEGRADATION OF KINASES” (DANA-FARBER CANCER INSTITUTE, INC., priority 2020, published 2024)
Like-named read-outs stand apart in the source and are kept apart here.

Columns and labels:
Assay type in all cases: cell-based
[1] = target: T1, protein kinases (human kinome) (Homo sapiens, UniProt Q16854); conditions: DGUOK (Q16854)
T1 sequence (Q16854 40-277): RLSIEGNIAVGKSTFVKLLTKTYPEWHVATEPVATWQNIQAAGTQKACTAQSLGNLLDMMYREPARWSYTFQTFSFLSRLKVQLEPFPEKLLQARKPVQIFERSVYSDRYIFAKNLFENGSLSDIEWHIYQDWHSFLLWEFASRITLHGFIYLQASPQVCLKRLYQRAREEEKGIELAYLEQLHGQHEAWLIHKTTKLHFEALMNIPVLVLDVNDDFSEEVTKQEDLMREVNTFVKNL

[2] = target: protein kinases (human kinome) (Homo sapiens, UniProt Q7KZI7)
[3] = target: protein kinases (human kinome) (Homo sapiens, UniProt P49137)
[4] = target: T2, protein kinases (human kinome) (Homo sapiens, UniProt Q8IVH8); conditions: experiment wp168
T2 sequence (Q8IVH8 1-894): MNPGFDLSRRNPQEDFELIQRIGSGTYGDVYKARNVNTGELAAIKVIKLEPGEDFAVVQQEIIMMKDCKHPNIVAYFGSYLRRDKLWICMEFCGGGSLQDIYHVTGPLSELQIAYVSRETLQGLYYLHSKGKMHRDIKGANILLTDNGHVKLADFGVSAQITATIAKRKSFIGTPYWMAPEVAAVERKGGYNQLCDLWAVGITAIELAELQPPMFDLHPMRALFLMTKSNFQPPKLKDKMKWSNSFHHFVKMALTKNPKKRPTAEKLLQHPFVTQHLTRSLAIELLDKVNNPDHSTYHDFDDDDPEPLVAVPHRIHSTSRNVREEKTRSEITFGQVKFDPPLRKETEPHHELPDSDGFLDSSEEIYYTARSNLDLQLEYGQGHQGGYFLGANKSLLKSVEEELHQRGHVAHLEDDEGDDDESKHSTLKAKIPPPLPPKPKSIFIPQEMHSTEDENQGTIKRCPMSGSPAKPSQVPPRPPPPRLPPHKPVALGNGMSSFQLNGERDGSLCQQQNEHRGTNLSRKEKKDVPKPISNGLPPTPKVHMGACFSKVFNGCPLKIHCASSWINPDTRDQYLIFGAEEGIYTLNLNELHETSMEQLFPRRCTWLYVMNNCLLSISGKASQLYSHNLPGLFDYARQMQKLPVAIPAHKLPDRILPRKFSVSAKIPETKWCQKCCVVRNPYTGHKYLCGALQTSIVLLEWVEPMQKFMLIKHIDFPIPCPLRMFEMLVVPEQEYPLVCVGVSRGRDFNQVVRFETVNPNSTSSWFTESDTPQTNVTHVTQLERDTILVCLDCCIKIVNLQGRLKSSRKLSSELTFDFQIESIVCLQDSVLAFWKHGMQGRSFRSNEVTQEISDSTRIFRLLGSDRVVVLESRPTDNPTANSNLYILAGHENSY

[5] = target: protein kinases (human kinome) (Homo sapiens, UniProt P06493); conditions: CDK1 P06493
[6] = target: protein kinases (human kinome) (Homo sapiens, UniProt P49674); conditions: CSNK1E P49674
[7] = Accession P49137, experiment wp168, direction down
[8] = MAPKAPK2 (P49137), experiment wp168

Sequence of protein kinases (human kinome) (Homo sapiens, UniProt Q7KZI7) (Q7KZI7 whole entry): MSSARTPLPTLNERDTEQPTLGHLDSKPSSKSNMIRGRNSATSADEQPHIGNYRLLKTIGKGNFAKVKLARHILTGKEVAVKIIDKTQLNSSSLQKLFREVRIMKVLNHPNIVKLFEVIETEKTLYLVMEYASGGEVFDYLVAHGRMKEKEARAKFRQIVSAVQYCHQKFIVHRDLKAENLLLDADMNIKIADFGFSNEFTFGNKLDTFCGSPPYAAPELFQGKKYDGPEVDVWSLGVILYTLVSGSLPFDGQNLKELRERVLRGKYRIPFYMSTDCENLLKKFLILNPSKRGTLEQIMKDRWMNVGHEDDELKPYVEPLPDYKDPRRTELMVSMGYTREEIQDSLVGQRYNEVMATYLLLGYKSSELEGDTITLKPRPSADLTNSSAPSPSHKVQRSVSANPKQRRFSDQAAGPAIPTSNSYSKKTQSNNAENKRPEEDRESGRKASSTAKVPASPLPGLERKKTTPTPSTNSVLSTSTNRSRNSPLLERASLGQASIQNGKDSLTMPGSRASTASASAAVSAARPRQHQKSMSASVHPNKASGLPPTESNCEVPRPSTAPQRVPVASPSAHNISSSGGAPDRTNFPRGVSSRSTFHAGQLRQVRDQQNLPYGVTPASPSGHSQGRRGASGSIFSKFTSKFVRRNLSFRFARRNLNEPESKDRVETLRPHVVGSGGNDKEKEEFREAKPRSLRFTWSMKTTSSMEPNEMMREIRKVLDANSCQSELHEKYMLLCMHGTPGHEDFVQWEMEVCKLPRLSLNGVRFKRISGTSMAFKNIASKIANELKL
Sequence of protein kinases (human kinome) (Homo sapiens, UniProt P49137) (P49137 whole entry): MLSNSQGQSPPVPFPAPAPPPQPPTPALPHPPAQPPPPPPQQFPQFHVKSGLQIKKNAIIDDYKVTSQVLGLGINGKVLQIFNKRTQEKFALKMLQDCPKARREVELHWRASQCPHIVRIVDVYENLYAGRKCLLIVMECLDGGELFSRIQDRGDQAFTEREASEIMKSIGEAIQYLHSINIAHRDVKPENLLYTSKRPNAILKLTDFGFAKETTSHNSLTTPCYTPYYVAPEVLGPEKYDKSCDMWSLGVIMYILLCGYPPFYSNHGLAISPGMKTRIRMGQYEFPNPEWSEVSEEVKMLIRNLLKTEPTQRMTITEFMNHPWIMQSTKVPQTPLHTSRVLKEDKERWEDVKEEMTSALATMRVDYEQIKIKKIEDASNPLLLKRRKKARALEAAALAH
Sequence of protein kinases (human kinome) (Homo sapiens, UniProt P06493) (P06493 whole entry): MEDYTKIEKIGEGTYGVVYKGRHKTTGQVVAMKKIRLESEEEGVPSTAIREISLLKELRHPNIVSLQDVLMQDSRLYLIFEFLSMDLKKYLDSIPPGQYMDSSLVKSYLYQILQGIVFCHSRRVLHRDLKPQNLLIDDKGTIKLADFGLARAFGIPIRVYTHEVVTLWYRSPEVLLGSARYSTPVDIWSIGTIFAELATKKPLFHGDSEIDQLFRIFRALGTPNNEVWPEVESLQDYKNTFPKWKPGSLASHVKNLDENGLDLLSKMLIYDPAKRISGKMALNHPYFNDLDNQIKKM
Sequence of protein kinases (human kinome) (Homo sapiens, UniProt P49674) (P49674 whole entry): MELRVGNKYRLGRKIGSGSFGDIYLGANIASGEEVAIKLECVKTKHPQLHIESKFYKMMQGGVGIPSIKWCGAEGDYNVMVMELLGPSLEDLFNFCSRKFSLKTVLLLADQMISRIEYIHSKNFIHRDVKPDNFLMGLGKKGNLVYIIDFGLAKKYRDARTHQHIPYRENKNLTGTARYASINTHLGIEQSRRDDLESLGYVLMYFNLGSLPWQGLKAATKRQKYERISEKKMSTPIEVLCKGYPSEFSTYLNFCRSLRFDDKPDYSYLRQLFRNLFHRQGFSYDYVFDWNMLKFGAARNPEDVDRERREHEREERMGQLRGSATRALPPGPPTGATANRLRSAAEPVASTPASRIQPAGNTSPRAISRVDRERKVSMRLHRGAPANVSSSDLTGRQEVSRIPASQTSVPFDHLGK

## CC(=O)c1c(C)c2cnc(Nc3ccc(N4CCN(CCOCCOCCOCCNC(=O)COc5cccc6c5C(=O)N(C5CCC(=O)NC5=O)C6=O)CC4)cn3)nc2n(C2CCCC2)c1=O (stereo not shown) [BSJ.03.123]
[1]; experiment wp084
  logFC: −0.4377

## CN(C)C(=O)c1cc2cnc(Nc3ccc(N4CCN(CCCCNC(=O)COc5cccc6c5C(=O)N(C5CCC(=O)NC5=O)C6=O)CC4)cn3)nc2n1C1CCCC1 (stereo not shown) [BSJ.04.132]
[1]; experiment wp084
  logFC: −0.5254

## O=C(COc1cccc2c1C(=O)N(C1CCC(=O)NC1=O)C2=O)NCCCCCCCN1CCc2cc(Nc3ncc(C4CC4)c(NCCCNC(=O)C4CCC4)n3)ccc2C1 (stereo not shown) [BSJ.04.178]
[2]; MARK2 (Q7KZI7-1), experiment wp134, direction down
  logFC: −0.9686
[2]; MARK2 Q7KZI7-1, experiment wp134
  logFC: −0.9686

## Cc1ncsc1-c1ccc([C@H](C)NC(=O)[C@@H]2C[C@@H](O)CN2C(=O)[C@@H](NC(=O)CCCCCN2CCc3cc(Nc4ncc(C5CC5)c(NCCCNC(=O)C5CCC5)n4)ccc3C2)C(C)(C)C)cc1 [BSJ.05.026]
[2]; MARK2 (Q7KZI7-1), experiment wp195, direction down
  logFC: −1.239
[2]; MARK2 Q7KZI7-1, experiment wp195
  logFC: −1.239

## Cc1ccc(NC(=O)c2cccc(C(F)(F)F)c2)cc1N1Cc2cnc(Nc3ccc(N4CCN(Cc5cn(CCCCCOc6cccc7c6C(=O)N(C6CCC(=O)NC6=O)C7=O)nn5)CC4)nc3)nc2N(C)C1=O (stereo not shown) [DB0646, N-(3-(7-((6-(4-((1-(5-((2-(2,6-Dioxopiperidin-3-yl)-1,3-dioxoisoindolin-4-yl)oxy)pentyl)-1H-1,2,3-triazol-4-yl)methyl)piperazin-1-v)pyridin-3-yl)amino)-1-methyl-2-oxo-1,4-dihydropyrimido[4,5-d]pyrimidin-3(2H)-yl)-4-methylphenyl)-3-(trifluoromethyl)benzamide]
[3]; Accession P49137, experiment wp045, direction down
  logFC MAPKAPK2: −0.4334
[3]; Accession P49137, experiment wp105, direction down
  logFC MAPKAPK2: −0.4562
[3]; Accession P49137, experiment wp107, direction down
  logFC MAPKAPK2: −0.3734
[3]; Accession P49137, experiment wp114, direction down
  logFC MAPKAPK2: −0.4911
[3]; Accession P49137, experiment wp117, direction down
  logFC MAPKAPK2: −0.4333
[3]; Accession P49137, experiment wp152, direction down
  logFC MAPKAPK2: −0.4223
[3]; Accession P49137, experiment wp160, 4 hr, direction down
  logFC MAPKAPK2: −0.3444
[3]; Accession P49137, experiment wp160, 8 hr, direction down
  logFC MAPKAPK2: −0.6227
[3]; Accession P49137, experiment wp172, direction down
  logFC MAPKAPK2: −0.3294
[3]; MAPKAPK2 (P49137), experiment wp045
  logFC MAPKAPK2: −0.4334
[3]; MAPKAPK2 (P49137), experiment wp105
  logFC MAPKAPK2: −0.4562
[3]; MAPKAPK2 (P49137), experiment wp107
  logFC MAPKAPK2: −0.3734
[3]; MAPKAPK2 (P49137), experiment wp114
  logFC MAPKAPK2: −0.4911
[3]; MAPKAPK2 (P49137), experiment wp117
  logFC MAPKAPK2: −0.4333
[3]; MAPKAPK2 (P49137), experiment wp152
  logFC MAPKAPK2: −0.4223
[3]; MAPKAPK2 (P49137), experiment wp160, 4 hr
  logFC MAPKAPK2: −0.3444
[3]; MAPKAPK2 (P49137), experiment wp160, 8 hr
  logFC MAPKAPK2: −0.6227
[3]; MAPKAPK2 (P49137), experiment wp172
  logFC MAPKAPK2: −0.3294

## Cc1ccc(NC(=O)c2cccc(C(F)(F)F)c2)cc1N1Cc2cnc(Nc3ccc(N4CCN(CCCOc5cccc6c5C(=O)N(C5CCC(=O)NC5=O)C6=O)CC4)nc3)nc2N(C)C1=O (stereo not shown) [DB0662]
[3]; [7]
  logFC MAPKAPK2: −0.331
[3]; [8]
  logFC MAPKAPK2: −0.331

## Cc1ccc(NC(=O)c2cccc(C(F)(F)F)c2)cc1N1Cc2cnc(Nc3ccc(N4CCN(CCCCC(=O)N[C@H](C(=O)N5C[C@H](O)C[C@H]5C(=O)N[C@@H](C)c5ccc(-c6scnc6C)cc5)C(C)(C)C)CC4)nc3)nc2N(C)C1=O [DB1113]
[4]; MAP4K3 Q8IVH8
  logFC: −1.385
[4]; MAP4K3 Q81VH8
  logFC MAP4K3: −1.385
[3]; [7]
  logFC MAPKAPK2: −3.201
[3]; [8]
  logFC MAPKAPK2: −3.201

## CC(C)(C)c1nc(-c2cccc(NS(=O)(=O)c3c(F)cccc3F)c2F)c(-c2ccnc(NCCOCCNC(=O)CCOCCOCCNc3cccc4c3C(=O)N(C3CCC(=O)NC3=O)C4=O)n2)s1 (stereo not shown) [DD.03.106]
[5]; experiment wp147, 2 uM
  logFC: −0.5015
  logFC CDK1: −0.5015
[5]; experiment wp147, 4 uM
  logFC: −0.5416
  logFC CDK1: −0.5416
[1]; experiment wp147, 4 uM
  logFC: −0.5418

## CC(C)(C)c1nc(-c2cccc(NS(=O)(=O)c3c(F)cccc3F)c2F)c(-c2ccnc(NCCOCCNC(=O)CCOCCOCCNc3cccc4c3CN(C3CCC(=O)NC3=O)C4=O)n2)s1 (stereo not shown) [DD.03.107]
[1]; experiment wp147, 1 uM
  logFC: −0.5245
[1]; experiment wp147, 4 uM
  logFC: −0.9678

## Cc1ncsc1-c1ccc([C@H](C)NC(=O)[C@@H]2C[C@@H](O)CN2C(=O)[C@@H](NC(=O)CCCCCN2CCN(c3ccc(Nc4ncc5scc(-c6cccc(NS(C)(=O)=O)c6)c5n4)cc3)CC2)C(C)(C)C)cc1 [RSS0680, (2S,4R)-1-((S)-3,3-Dimethyl-2-(6-(4-(4-((7-(3-(methylsulfonamido)phenyl)thieno[3,2-d]pyrimidin-2-yl)amino)phenyl)piperazin-1-yl)hexanamido)butanoyl)-4-hydroxy-N—((S)-1-(4-(4-methylthiazol-5yl)phenyl)ethyl)pyrrolidine-2-carboxamide]
[5]; experiment wp117
  logFC: −0.3587
  logFC CDK1: −0.3587
[2]; MARK2 (Q7KZI7-1), experiment wp117, direction down
  logFC: −0.4286
[2]; MARK2 Q7KZI7-1, experiment wp117
  logFC: −0.4286

## Nc1ncnc2c1c(-c1ccc(Oc3ccccc3)cc1)nn2[C@H]1CC[C@H](N2CCN(CCOCCNC(=O)CNc3cccc4c3C(=O)N(C3CCC(=O)NC3=O)C4=O)CC2)CC1 (stereo partly shown) [SB1.G.181]
[6]; experiment wp071
  logFC: −1.189
  logFC CSNK1E: −1.189

## NC(=O)c1c(F)cccc1Nc1nc(Nc2ccc(S(=O)(=O)NCCOCCOCCOCCOCCNc3cccc4c3C(=O)N(C3CCC(=O)NC3=O)C4=O)cc2)ncc1Br (stereo not shown) [TMX.02.138]
[5]; experiment wp146
  logFC: −1.641
  logFC CDK1: −1.641

## Cc1cc(Nc2ncc(Br)c(Nc3cccc(F)c3C(N)=O)n2)ccc1S(=O)(=O)NCCOCCOCCOCCOCCNc1cccc2c1C(=O)N(C1CCC(=O)NC1=O)C2=O (stereo not shown) [TMX.02.174]
[5]; experiment wp146
  logFC: −1.629
  logFC CDK1: −1.629

## Nc1ncc(-c2ccc(S(=O)(=O)N(CCCNC(=O)CCOCCOCCOCCOCCOCCNc3cccc4c3C(=O)N(C3CCC(=O)NC3=O)C4=O)C3CC3)cc2)cc1-c1ccc2c(c1)CCNC2=O (stereo not shown) [WH.10417.099]
[6]; experiment wp056
  logFC: −1.591
  logFC CSNK1E: −1.591
[6]; experiment wp103
  logFC: −1.306
  logFC CSNK1E: −1.306
[6]; experiment wp105
  logFC: −0.8305
  logFC CSNK1E: −0.8305
[6]; experiment wp107
  logFC: −2.192
  logFC CSNK1E: −2.192
[6]; experiment wp172
  logFC: −1.164
  logFC CSNK1E: −1.164

## C=CCn1c(=O)c2cnc(Nc3ccc(N4CCN(CCCNc5cccc6c5C(=O)N(C5CCC(=O)NC5=O)C6=O)CC4)cc3)nc2n1-c1cccc(C(C)(C)O)n1 (stereo not shown) [ZNL.02.096]
[1]; experiment wp118
  logFC: −0.5337
